# Experimental data taken from ChEMBL document CHEMBL1201862, “PubChem BioAssay data set” (2004).
#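 Exposure lasted 48 hours, with cells grown in 96-well plates and compounds tested at five concentrations. At the GI50, growth is halved.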 Activity calls are given as the source filed them. Cut-off read from the data, not from the text of the source: active = GI50 up to about 1.1 µM and inactive = higher.
# Experiments:
# Experiment in all cases: DTP human tumour cell line panel, 48 h
# OVCAR-3 = test system: OVCAR-3
# SK-MEL-2 = test system: SK-MEL-2
# T47D = test system: T47D
# HL-60 = test system: HL-60
# SK-MEL-28 = test system: SK-MEL-28
# IGROV-1 = test system: IGROV-1
# TK-10 = test system: TK-10
# A549 = test system: A549
# HCC 2998 = test system: HCC 2998
# ACHN = test system: ACHN
# CCRF-CEM = test system: CCRF-CEM
# LOX IMVI = test system: LOX IMVI
# KM12 = test system: KM12
# SW-620 = test system: SW-620
# SF-295 = test system: SF-295
# DU-145 = test system: DU-145
# NCI-H522 = test system: NCI-H522
# K562 = test system: K562
# SF-268 = test system: SF-268
# UACC-62 = test system: UACC-62
# PC-3 = test system: PC-3
# RPMI-8226 = test system: RPMI-8226
# SK-MEL-5 = test system: SK-MEL-5
# SK-OV-3 = test system: SK-OV-3
# NCI-H23 = test system: NCI-H23
# MOLT-4 = test system: MOLT-4
# MDA-MB-435 = test system: MDA-MB-435
# M14 = test system: M14
# UACC-257 = test system: UACC-257
# SF-539 = test system: SF-539
# Hs-578T = test system: Hs-578T
# OVCAR-8 = test system: OVCAR-8
# NCI/ADR-RES = test system: NCI/ADR-RES
# MDA-MB-231 = test system: MDA-MB-231
# HOP-92 = test system: HOP-92
# HOP-62 = test system: HOP-62
# SR = test system: SR
# SN12C = test system: SN12C
# MDA-N = test system: MDA-N
# Malme-3M = test system: Malme-3M
# BT-549 = test system: BT-549
# 786-0 = test system: 786-0
# CAKI-1 = test system: CAKI-1
# UO-31 = test system: UO-31
# MCF7 = test system: MCF7
# HT-29 = test system: HT-29
# OVCAR-5 = test system: OVCAR-5
# A498 = test system: A498
# NCI-H226 = test system: NCI-H226
# SNB-19 = test system: SNB-19
# EKVX = test system: EKVX
# HCT-15 = test system: HCT-15
# SNB-75 = test system: SNB-75
# NCI-H460 = test system: NCI-H460
# OVCAR-4 = test system: OVCAR-4
# U-251 = test system: U-251
# COLO 205 = test system: COLO 205
# HCT-116 = test system: HCT-116
# RXF 393 = test system: RXF 393
smiles,measurement,setting,value
N#Cc1ccc(C(=O)/C=C/c2ccc(O)c(O)c2)cc1,GI50,OVCAR-3,15.8 µM (inactive)
same,GI50,SK-MEL-2,17.3 µM (inactive)
same,GI50,T47D,16.3 µM (inactive)
same,GI50,HL-60,2.5 µM (inactive)
same,GI50,SK-MEL-28,15.5 µM (inactive)
same,GI50,IGROV-1,12.8 µM (inactive)
same,GI50,TK-10,14.1 µM (inactive)
same,GI50,A549,15.3 µM (inactive)
same,GI50,HCC 2998,14.8 µM (inactive)
same,GI50,ACHN,17.3 µM (inactive)
same,GI50,CCRF-CEM,1.4 µM (inactive)
same,GI50,LOX IMVI,11.5 µM (inactive)
same,GI50,KM12,13.9 µM (inactive)
same,GI50,SW-620,13.2 µM (inactive)
same,GI50,SF-295,17.7 µM (inactive)
same,GI50,DU-145,16.3 µM (inactive)
same,GI50,NCI-H522,1.53 µM (inactive)
same,GI50,K562,7.1 µM (inactive)
same,GI50,SF-268,14.1 µM (inactive)
same,GI50,UACC-62,17.1 µM (inactive)
same,GI50,PC-3,15.3 µM (inactive)
same,GI50,RPMI-8226,3.1 µM (inactive)
same,GI50,SK-MEL-5,15.2 µM (inactive)
same,GI50,SK-OV-3,21.9 µM (inactive)
same,GI50,NCI-H23,16.9 µM (inactive)
same,GI50,MOLT-4,8.38 µM (inactive)
same,GI50,MDA-MB-435,14.4 µM (inactive)
same,GI50,M14,18.2 µM (inactive)
same,GI50,UACC-257,16.2 µM (inactive)
same,GI50,SF-539,15.6 µM (inactive)
same,GI50,Hs-578T,24.4 µM (inactive)
same,GI50,OVCAR-8,> 40.4 µM (inactive)
same,GI50,NCI/ADR-RES,> 43 µM (inactive)
same,GI50,MDA-MB-231,15.6 µM (inactive)
same,GI50,HOP-92,15.5 µM (inactive)
same,GI50,HOP-62,17.9 µM (inactive)
same,GI50,SR,1.57 µM (inactive)
same,GI50,SN12C,15.5 µM (inactive)
same,GI50,MDA-N,14.9 µM (inactive)
same,GI50,Malme-3M,15.7 µM (inactive)
same,GI50,BT-549,12.6 µM (inactive)
same,GI50,786-0,> 38.4 µM (inactive)
same,GI50,CAKI-1,15.3 µM (inactive)
same,GI50,UO-31,12.4 µM (inactive)
same,GI50,MCF7,13 µM (inactive)
same,GI50,HT-29,16.4 µM (inactive)
same,GI50,OVCAR-5,17.7 µM (inactive)
same,GI50,A498,17.7 µM (inactive)
same,GI50,NCI-H226,20.2 µM (inactive)
same,GI50,SNB-19,15.8 µM (inactive)
same,GI50,EKVX,17.2 µM (inactive)
same,GI50,HCT-15,15.5 µM
same,GI50,SNB-75,17.4 µM (inactive)
same,GI50,NCI-H460,16.1 µM (inactive)
same,GI50,OVCAR-4,12.4 µM (inactive)
same,GI50,U-251,13.4 µM (inactive)
same,GI50,COLO 205,16.7 µM (inactive)
same,GI50,HCT-116,10.5 µM (inactive)
same,GI50,RXF 393,16.8 µM (inactive)
CC(=O)NC1C(OCc2ccccc2)OC(CO)C(O)C1OCC(=O)N[C@@H](C)C(=O)N[C@H](CCC(=O)NCCNCCNc1c2ccccc2nc2cccc([N+](=O)[O-])c12)C(N)=O (stereo partly drawn),GI50,OVCAR-3,44 µM (inactive)
same,GI50,SK-MEL-2,22.3 µM (inactive)
same,GI50,T47D,27.5 µM (inactive)
same,GI50,HL-60,26.2 µM (inactive)
same,GI50,SK-MEL-28,> 100 µM (inactive)
same,GI50,IGROV-1,8.87 µM (inactive)
same,GI50,TK-10,31.8 µM (inactive)
same,GI50,A549,35.4 µM (inactive)
same,GI50,HCC 2998,6.52 µM (inactive)
same,GI50,ACHN,26.7 µM (inactive)
same,GI50,CCRF-CEM,24 µM (inactive)
same,GI50,LOX IMVI,23.5 µM (inactive)
same,GI50,KM12,24.2 µM (inactive)
same,GI50,SW-620,39.1 µM (inactive)
same,GI50,SF-295,57.4 µM (inactive)
same,GI50,DU-145,36.6 µM (inactive)
same,GI50,NCI-H522,4.92 µM (inactive)
same,GI50,K562,32.3 µM (inactive)
same,GI50,UACC-62,17.7 µM (inactive)
same,GI50,PC-3,22.1 µM (inactive)
same,GI50,RPMI-8226,24.4 µM (inactive)
same,GI50,SK-MEL-5,17.8 µM (inactive)
same,GI50,SK-OV-3,78.5 µM (inactive)
same,GI50,NCI-H23,16.4 µM (inactive)
same,GI50,MDA-MB-435,29.6 µM (inactive)
same,GI50,M14,56 µM (inactive)
same,GI50,UACC-257,21.2 µM (inactive)
same,GI50,SF-539,33.3 µM (inactive)
same,GI50,Hs-578T,22.5 µM (inactive)
same,GI50,OVCAR-8,27.4 µM (inactive)
same,GI50,NCI/ADR-RES,> 100 µM (inactive)
same,GI50,MDA-MB-231,34.8 µM (inactive)
same,GI50,HOP-92,20.7 µM (inactive)
same,GI50,HOP-62,41.4 µM (inactive)
same,GI50,SR,18.1 µM (inactive)
same,GI50,SN12C,59.7 µM (inactive)
same,GI50,MDA-N,33.1 µM (inactive)
same,GI50,Malme-3M,19.2 µM (inactive)
same,GI50,BT-549,> 10 µM (inactive)
same,GI50,786-0,25.4 µM (inactive)
same,GI50,CAKI-1,22.6 µM (inactive)
same,GI50,UO-31,44.8 µM (inactive)
same,GI50,MCF7,37.9 µM (inactive)
same,GI50,HT-29,23.6 µM (inactive)
same,GI50,OVCAR-5,53.3 µM (inactive)
same,GI50,A498,19.8 µM (inactive)
same,GI50,SNB-19,38.9 µM (inactive)
same,GI50,EKVX,31.6 µM (inactive)
same,GI50,HCT-15,22.6 µM
same,GI50,SNB-75,33.2 µM (inactive)
same,GI50,NCI-H460,15.1 µM (inactive)
same,GI50,OVCAR-4,17.3 µM (inactive)
same,GI50,U-251,34.3 µM (inactive)
same,GI50,COLO 205,25 µM (inactive)
same,GI50,HCT-116,19.5 µM (inactive)
same,GI50,RXF 393,36.4 µM (inactive)
COc1cc2cc(C(=O)N3CC(COS(C)(=O)=O)c4ccc(NC(=O)OCc5ccccc5)cc43)[nH]c2c(OC)c1OC (stereo not drawn),GI50,OVCAR-3,> 100 µM (inactive)
same,GI50,SK-MEL-2,67.1 µM (inactive)
same,GI50,T47D,> 100 µM (inactive)
same,GI50,HL-60,> 100 µM (inactive)
same,GI50,SK-MEL-28,> 100 µM (inactive)
same,GI50,IGROV-1,> 100 µM (inactive)
same,GI50,TK-10,> 100 µM (inactive)
same,GI50,A549,> 100 µM (inactive)
same,GI50,HCC 2998,84.3 µM (inactive)
same,GI50,ACHN,> 100 µM (inactive)
same,GI50,CCRF-CEM,> 100 µM (inactive)
same,GI50,LOX IMVI,> 100 µM (inactive)
same,GI50,KM12,> 100 µM (inactive)
same,GI50,SW-620,> 100 µM (inactive)
same,GI50,SF-295,> 100 µM (inactive)
same,GI50,DU-145,> 100 µM (inactive)
same,GI50,NCI-H522,99.1 µM (inactive)
same,GI50,K562,> 100 µM (inactive)
same,GI50,SF-268,> 100 µM (inactive)
same,GI50,UACC-62,> 100 µM (inactive)
same,GI50,PC-3,> 100 µM (inactive)
same,GI50,SK-MEL-5,26.5 µM (inactive)
same,GI50,SK-OV-3,> 100 µM (inactive)
same,GI50,NCI-H23,17 µM (inactive)
same,GI50,MOLT-4,28.3 µM (inactive)
same,GI50,MDA-MB-435,> 100 µM (inactive)
same,GI50,M14,> 100 µM (inactive)
same,GI50,UACC-257,> 100 µM (inactive)
same,GI50,SF-539,> 100 µM (inactive)
same,GI50,Hs-578T,> 100 µM (inactive)
same,GI50,OVCAR-8,> 100 µM (inactive)
same,GI50,NCI/ADR-RES,> 100 µM (inactive)
same,GI50,MDA-MB-231,> 100 µM (inactive)
same,GI50,HOP-92,9.59 µM (inactive)
same,GI50,HOP-62,79.1 µM (inactive)
same,GI50,SR,3.24 µM (inactive)
same,GI50,SN12C,> 100 µM (inactive)
same,GI50,MDA-N,> 100 µM (inactive)
same,GI50,Malme-3M,> 100 µM (inactive)
same,GI50,BT-549,> 100 µM (inactive)
same,GI50,786-0,> 100 µM (inactive)
same,GI50,CAKI-1,> 100 µM (inactive)
same,GI50,UO-31,> 100 µM (inactive)
same,GI50,MCF7,0.55 µM (active)
same,GI50,HT-29,> 100 µM (inactive)
same,GI50,OVCAR-5,> 100 µM (inactive)
same,GI50,A498,43.3 µM (inactive)
same,GI50,NCI-H226,> 100 µM (inactive)
same,GI50,SNB-19,> 100 µM (inactive)
same,GI50,EKVX,> 100 µM (inactive)
same,GI50,HCT-15,> 100 µM
same,GI50,SNB-75,28.9 µM (inactive)
same,GI50,NCI-H460,91.8 µM (inactive)
same,GI50,OVCAR-4,> 100 µM (inactive)
same,GI50,U-251,> 100 µM (inactive)
same,GI50,COLO 205,> 100 µM (inactive)
same,GI50,HCT-116,> 100 µM (inactive)
same,GI50,RXF 393,25.2 µM (inactive)
